Laboratory results reported in publication PMC4815073, “Targeting of tubulin polymerization and induction of mitotic blockage by Methyl 2-(5-fluoro-2-hydroxyphenyl)-1H-benzo[d]imidazole-5-carboxylate (MBIC) in human cervical cancer HeLa cell” (Journal of Experimental & Clinical Cancer Research : CR, 2016).

Key:
WRL-68 cells = assay: MTT cytotoxicity assay, WRL-68 normal liver cells; format: cell-based, human
From the text: (§1) The human cervical cancer cell-line, HeLa (CCL-2.2; ATCC, Manassas, VA), HCT-116 (CCL-247; ATCC, Manassas, VA), A549 (CCL-185; ATCC, Manassas, VA), HepG-2 (HB-8065; ATCC, Manassas, VA) and WRL-68 (CL-48; ATCC, Manassas, VA), were obtained from American Type Culture Collection (ATCC). HeLa, A549, HepG2 and WRL68 cells were maintained in Dulbecco’s Modified Eagle Medium (DMEM, Life Technologies, Inc, Rockville, MD). HCT-116 was obtained in McCoy’s 5a Medium Modified (Life Technologies, Inc, Rockville, MD) supplemented with 10 % fetal bovine serum and 1 % penicillin/streptomycin. Cells were incubated at 37 °C in a humidified cell culture 5 % CO2 incubator. Cells were passaged until reaching 70-80-% confluency for experimental purposes.
(§2) Cytotoxicity of MBIC was estimated by MTT assay. Briefly, 1 × 10^4 cells/well were seeded in a 96-well plate and incubated at 37 °C in 5 % CO2. After 24 h, cells were treated with different concentrations (0.02, 0.04, 0.1, 0.2, 0.4, 0.8, 1.5, 3, 6, 12, 25, 50 μM) of MBIC. 0.01 % DMSO was used as vehicle control. Cells were incubated for 24 and 48 h at 37 °C. Subsequently, 50 μl/well of 3-(4,5-dimethylthiazol-2-yl)-2,5-diphenyltetrazolium bromide (MTT, 2 mg/ml) was added and incubated for 2 h. After the incubation, the media was discarded and 100 μl DMSO was replaced into each well to dissolve the formazan crystal. The colorimetric assay was quantified at 570 nm wavelength using Chameleon V microplate reader (Hidex, Turku, Finland). The anti-proliferation activity of MBIC was expressed as an IC50 value. The percentage of cell viability was calculated as described previously.

HepG-2 cells = assay: MTT cytotoxicity assay, HepG-2; format: cell-based, human; conditions: for IC50: MTT
From the text: as §1, §2

HeLa cells [1] = assay: MTT cytotoxicity assay, HeLa; format: cell-based, human; conditions: for IC50: HeLa, MTT; for SI (Selectivity Index): IC50 WRL-68 / IC50 HeLa
From the text: as §1, §2

A549 cells = assay: MTT cytotoxicity assay, A549; format: cell-based, human; conditions: for IC50: MTT
From the text: as §1, §2

HeLa cells [2] = assay: Drug combination assay (MTT, Chou-Talalay, CampuSyn); format: cell-based; conditions: Homo sapiens, 24 h, drug alone, read-out: (Dm)IC50 Drug 1 (conventional drug alone)
Procedure: In order to discover the synergistic effects of MBIC with conventional drugs briefly, cells were seeded in 1 × 10^4 cells/well and were incubated at 37 °C overnight. […] Also, the MBIC, combined with each of the selected conventional drugs in a 1:1 ratio, were diluted in concentration from 50 μM to 0.1 μM. Cell viability assay (MTT assay) was performed 24 h post-treatment and absorbance were measured in a microplate reader to find out the IC50 for each conventional drug alone and in combination with MBIC on HeLa cells. For this analysis, we used the commercial software package CampuSyn (Biosoft, Cambridge, United Kingdom; Ref.9). […] Furthermore, the software produced an automated isobologram and fraction affected-combination index (Fa-CI) plot.

HCT-116 cells = assay: MTT cytotoxicity assay, HCT-116; format: cell-based, human; conditions: for IC50: MTT
From the text: as §1, §2

tubulin = biological target: T1, tubulin (Sus scrofa, UniProt P02550+P02554); assay: Tubulin polymerization assay; format: biochemical; conditions: 10 μM drug, 3 mg/ml tubulin, 37 °C, 340 nm; untreated 12 mOD/min
T1 construct: purchased Cytoskeleton BK011P
T1 sequence (P02550 whole entry): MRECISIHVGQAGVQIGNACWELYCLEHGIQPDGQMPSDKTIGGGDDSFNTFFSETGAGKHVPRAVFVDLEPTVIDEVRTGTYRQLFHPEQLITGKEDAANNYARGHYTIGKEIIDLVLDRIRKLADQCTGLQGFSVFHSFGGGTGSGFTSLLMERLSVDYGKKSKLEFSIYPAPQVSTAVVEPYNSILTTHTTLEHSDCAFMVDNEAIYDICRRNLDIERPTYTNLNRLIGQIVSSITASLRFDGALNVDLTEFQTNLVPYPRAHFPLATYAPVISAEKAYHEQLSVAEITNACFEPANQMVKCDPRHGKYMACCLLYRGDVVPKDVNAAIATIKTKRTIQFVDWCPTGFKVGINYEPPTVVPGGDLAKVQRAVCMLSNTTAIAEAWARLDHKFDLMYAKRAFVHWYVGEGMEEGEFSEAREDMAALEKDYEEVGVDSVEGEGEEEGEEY
T1 sequence (P02554 whole entry): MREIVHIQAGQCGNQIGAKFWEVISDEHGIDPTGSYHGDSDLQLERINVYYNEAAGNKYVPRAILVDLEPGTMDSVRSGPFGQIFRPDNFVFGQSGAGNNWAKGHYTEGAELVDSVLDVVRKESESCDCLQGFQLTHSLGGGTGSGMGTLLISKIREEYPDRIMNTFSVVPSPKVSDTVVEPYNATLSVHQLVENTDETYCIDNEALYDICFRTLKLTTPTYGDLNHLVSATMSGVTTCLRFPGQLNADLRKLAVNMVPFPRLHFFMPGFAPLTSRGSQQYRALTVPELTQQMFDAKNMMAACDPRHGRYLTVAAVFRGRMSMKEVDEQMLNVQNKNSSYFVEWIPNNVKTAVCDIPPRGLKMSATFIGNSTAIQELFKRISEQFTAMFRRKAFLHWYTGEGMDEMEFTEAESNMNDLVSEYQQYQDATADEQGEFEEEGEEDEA
Procedure: To investigate the effect of MBIC on tubulin polymerization, a fluorescence-based tubulin polymerization assay kit (Cytoskeleton-Cat. # BK011P) was used according to the manufacturer’s protocol. Briefly, 200 μl of pure tubulin protein was re-suspended in 420 μl of ice cold Tubulin Polymerization Buffer (TPB) to give a final concentration of 3 mg/ml tubulin, supplemented with 80 mM PIPES, 2 mM MgCl2, 0.5 mM EGTA, 1 mM GTP, 20 % (v/v) glycerol. 100 μl of tubulin reaction mixture were added to each well in a 96-well plate containing the selected concentration of MBIC (10 μM). […] Samples were mixed well and the tubulin assembly was monitored by an increase in fluorescence emission at 340 nm in kinetic mode for 120 min at 37 °C using a plate reader (Infinite® 200 PRO—Tecan plate reader, USA).

[3] = system: HeLa cells expressing EGFP-α-tubulin, EGFP-CENP-A and histone H2B-mCherry; assay: Live-cell imaging of mitotic spindle; format: cell-based, human; conditions: MBIC 10 μM, nocodazole 2 μM; imaged at 15 min intervals
Procedure: HeLa cells expressing EGFP-α-tubulin, EGFP-CENP-A and histone H2B-mCherry were grown in glass chambers (Thermo Scientific, USA). Thirty minutes before imaging, the medium was changed to pre-warmed Leibovitz’s L-15 medium (Life Technologies) supplemented with 20 % fetal bovine serum and 20 mM HEPES, pH 7.0. Recordings were made in a temperature-controlled incubator at 37 °C. Images were collected with an Olympus IX-71 inverted microscope (Olympus) controlled by DeltaVision softWoRx (Applied Precision) using a 20x 0.75 NA UPlan SApochromat objective lens (Olympus). Z-series of six sections in 3 μm increments were captured every 15 min. Image stacks were projected.

[4] = Homo sapiens, HepG2, HepG-2, 24 hours
[5] = Homo sapiens, HepG2, HepG-2, 48 hours
[6] = IC50 WRL-68 / IC50 HepG-2, 24 hours
[7] = IC50 WRL-68 / IC50 HepG-2, 48 hours
[8] = IC50 WRL-68 / IC50 A549, 24 hours
[9] = IC50 WRL-68 / IC50 A549, 48 hours
[10] = Homo sapiens, HCT-116, 24 hours
[11] = Homo sapiens, HCT-116, 48 hours
[12] = IC50 WRL-68 / IC50 HCT-116, 24 hours
[13] = IC50 WRL-68 / IC50 HCT-116, 48 hours

Row | SMILES | IC50 (WRL-68 cells; Homo sapiens, WRL68, 24 hours) [µM] | IC50 (WRL-68 cells; Homo sapiens, WRL68, 48 hours) [µM] | IC50 (HepG-2 cells; [4]) [µM] | IC50 (HepG-2 cells; [5]) [µM] | SI (Selectivity Index) (HepG-2 cells; [6]) | SI (Selectivity Index) (HepG-2 cells; [7]) | IC50 (HeLa cells [1]; Homo sapiens, 24 hours) [µM] | IC50 (HeLa cells [1]; Homo sapiens, 48 hours) [µM] | SI (Selectivity Index) (HeLa cells [1]; 24 hours) | SI (Selectivity Index) (HeLa cells [1]; 48 hours) | IC50 (A549 cells; Homo sapiens, A549, 24 hours) [µM] | IC50 (A549 cells; Homo sapiens, A549, 48 hours) [µM] | SI (Selectivity Index) (A549 cells; [8]) | SI (Selectivity Index) (A549 cells; [9]) | IC50 (HeLa cells [2]) [µM] | IC50 (HCT-116 cells; [10]) [µM] | IC50 (HCT-116 cells; [11]) [µM] | SI (Selectivity Index) (HCT-116 cells; [12]) | SI (Selectivity Index) (HCT-116 cells; [13]) | Tubulin polymerization maximal velocity (Vmax) (tubulin) [mOD/min] | further results
1 | COc1cccc2c1C(=O)c1c(O)c3c(c(O)c1C2=O)C[C@@](O)(C(=O)CO)C[C@@H]3O[C@H]1C[C@H](N)[C@H](O)[C@H](C)O1 [Doxorubicin] | 3.56 ± 0.9 | 1.68 ± 0.09 | 8.04 ± 0.8 | 3.94 ± 0.07 | 0.44 | 0.42 | 0.46 ± 0.04 | 0.29 ± 0.04 | 7.73 | 5.79 | 0.35 ± 0.07 | 0.09 ± 0.01 | 10.17 | 18.66 | 0.46 ± 0.7 | 0.91 ± 0.2 | 0.47 ± 0.3 | 3.91 | 3.57 |  | 
2 | CC(=O)O[C@H]1C(=O)[C@@]2(C)[C@H]([C@H](OC(=O)c3ccccc3)[C@]3(O)C[C@H](OC(=O)[C@H](O)[C@@H](NC(=O)c4ccccc4)c4ccccc4)C(C)=C1C3(C)C)[C@]1(OC(C)=O)CO[C@@H]1C[C@@H]2O [Paclitaxel] | 6.71 ± 0.2 | 3.41 ± 0.8 | 2.81 ± 0.72 | 1.03 ± 0.07 | 2.38 | 3.31 | 1.02 ± 0.01 | 0.57 ± 0.03 | 6.57 | 5.98 | 2.83 ± 0.11 | 1.23 ± 0.09 | 2.37 | 2.77 | 1.02 ± 0.6 | 3.09 ± 0.5 | 1.09 ± 0.4 | 2.17 | 3.12 | 33 | 
3 | N.N.[Cl][Pt][Cl] [Cisplatin] |  |  |  |  | 1.80 | 1.78 |  |  | 1.23 | 1.17 |  |  | 0.54 | 0.54 |  |  |  | 2.57 | 2.56 |  | IC50 (WRL-68 cells; 24 hours): 18.6 ± 1.4 µM; IC50 (WRL-68 cells; 48 hours): 10.6 ± 0.7 µM; IC50 (HepG-2 cells; HepG-2, 24 hours): 10.3 ± 0.5 µM; IC50 (HepG-2 cells; HepG-2, 48 hours): 5.93 ± 0.2 µM; IC50 (HeLa cells [1]; 24 hours): 15.07 ± 0.03 µM; IC50 (HeLa cells [1]; 48 hours): 9.02 ± 0.02 µM; IC50 (A549 cells; A549, 24 hours): 34 ± 0.9 µM; IC50 (A549 cells; A549, 48 hours): 19.5 ± 1.4 µM; IC50 (HCT-116 cells; HCT-116, 24 hours): 7.22 ± 0.5 µM; IC50 (HCT-116 cells; HCT-116, 48 hours): 4.12 ± 0.6 µM
4 | COC(=O)Nc1nc2ccc(C(=O)c3cccs3)cc2[nH]1 [Nocodazole] | 12.2 ± 0.9 | 7.56 ± 0.3 | 10.7 ± 0.5 | 5.08 ± 0.3 | 1.14 | 1.48 | 3.08 ± 0.02 | 2.22 ± 0.04 | 3.97 | 3.40 | 12.2 ± 0.2 | 5.09 ± 0.5 | 1.00 | 1.48 | 3.08 ± 0.5 | 3.81 ± 0.6 | 1.81 ± 0.3 | 3.20 | 4.17 | 3 | mitotic spindle formation in live-cell imaging [3]: did not form the spindle
